As a reminder, the IC50 is the concentration that inhibits the measured activity by half. A higher IC50 goes with weaker potency.

From US11161854B2, “Indazolyl-spiro[2.2]pentane-carbonitrile derivatives as LRRK2 inhibitors, pharmaceutical compositions, and uses thereof” (Merck Sharp & Dohme Corp., priority 2017, dated 2021) come the findings set out here.

For the experiment, the target named is GST-tagged truncated human mutant G2019S LRRK2 (Homo sapiens (Human), UniProt Q5S007, G2019S). Briefly: LRRK2 G2019S Km ATP LanthaScreen Assay. The class given is biochemical. Particulars: 134 μM ATP (Km ATP); fluorescein-labeled LRRKtide substrate; mean IC50 values. Background: TR-FRET usually uses a lanthanide donor and a delayed reading to cut background.
Chain of GST-tagged truncated human mutant G2019S LRRK2 (Q5S007 970-2527 G2019S): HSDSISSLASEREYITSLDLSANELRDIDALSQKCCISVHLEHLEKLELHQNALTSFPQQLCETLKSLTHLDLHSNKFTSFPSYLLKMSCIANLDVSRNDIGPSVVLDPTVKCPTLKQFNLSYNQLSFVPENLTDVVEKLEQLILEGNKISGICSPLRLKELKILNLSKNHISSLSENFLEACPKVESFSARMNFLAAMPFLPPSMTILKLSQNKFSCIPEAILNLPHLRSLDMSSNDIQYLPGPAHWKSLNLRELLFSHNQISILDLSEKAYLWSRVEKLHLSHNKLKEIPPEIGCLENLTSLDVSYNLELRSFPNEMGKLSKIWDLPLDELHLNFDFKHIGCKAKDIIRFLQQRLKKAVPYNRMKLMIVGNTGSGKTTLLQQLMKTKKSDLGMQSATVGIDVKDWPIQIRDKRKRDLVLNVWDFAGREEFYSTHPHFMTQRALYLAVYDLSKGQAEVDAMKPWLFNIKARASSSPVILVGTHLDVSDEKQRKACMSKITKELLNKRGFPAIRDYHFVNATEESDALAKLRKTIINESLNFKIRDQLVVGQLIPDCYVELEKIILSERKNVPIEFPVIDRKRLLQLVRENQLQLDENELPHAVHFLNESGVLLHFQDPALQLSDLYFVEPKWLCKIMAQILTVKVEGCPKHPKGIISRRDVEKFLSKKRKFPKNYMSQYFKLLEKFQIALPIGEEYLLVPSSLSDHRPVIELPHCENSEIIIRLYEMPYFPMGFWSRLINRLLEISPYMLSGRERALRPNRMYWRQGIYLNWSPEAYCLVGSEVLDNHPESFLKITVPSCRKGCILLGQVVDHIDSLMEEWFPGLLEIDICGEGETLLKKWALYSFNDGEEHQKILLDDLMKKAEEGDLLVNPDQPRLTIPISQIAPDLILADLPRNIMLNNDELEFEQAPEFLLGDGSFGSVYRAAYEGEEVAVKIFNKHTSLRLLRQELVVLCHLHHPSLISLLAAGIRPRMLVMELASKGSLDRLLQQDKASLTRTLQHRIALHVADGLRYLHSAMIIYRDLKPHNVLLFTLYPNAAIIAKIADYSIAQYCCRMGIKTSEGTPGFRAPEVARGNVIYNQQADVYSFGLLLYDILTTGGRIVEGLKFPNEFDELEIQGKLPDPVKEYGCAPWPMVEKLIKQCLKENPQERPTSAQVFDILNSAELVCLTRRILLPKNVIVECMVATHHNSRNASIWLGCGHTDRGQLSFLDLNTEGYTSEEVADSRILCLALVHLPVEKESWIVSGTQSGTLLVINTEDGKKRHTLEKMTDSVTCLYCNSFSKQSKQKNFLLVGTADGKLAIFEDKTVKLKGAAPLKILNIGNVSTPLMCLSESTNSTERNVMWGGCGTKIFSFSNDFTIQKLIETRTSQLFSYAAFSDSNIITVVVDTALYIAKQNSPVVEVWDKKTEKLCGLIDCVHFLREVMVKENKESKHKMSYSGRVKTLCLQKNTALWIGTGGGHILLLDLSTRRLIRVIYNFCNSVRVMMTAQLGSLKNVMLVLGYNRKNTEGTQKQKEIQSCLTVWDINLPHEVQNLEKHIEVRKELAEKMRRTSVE

`COc1nc(N2CC3(C(C)(C)O)CC2C3)cc(-n2ncc3ccc(C4(C#N)CC45CC5)cc32)n1` (single isomer, unassigned) [Example 2.5-1, 1-(1-(6-(4-(2-hydroxypropan-2-yl)-2-azabicyclo[2.1.1]hexan-2-yl)-2-methoxypyrimidin-4-yl)-1H-indazol-6-yl)spiro[2.2]pentane-1-carbonitrile] gave an IC50 of 0.9 nM.

`Cc1cc(-n2ncc3ccc([C@]4(C#N)CC45CC5)cc32)nc(C2CC2)n1` [Example 4.23] displayed an IC50 of 3.2 nM. To `COCc1nc(N2CCN(C3COC3)[C@H](C)C2)cc(-n2ncc3ccc([C@]4(C#N)CC45CC5)cc32)n1` [Example 4.11-1] belongs 1.3 nM; to `Cc1nc(N2CC3(C(C)(C)O)CC2C3)cc(-n2ncc3ccc(C4(C#N)CC45CC5)cc32)n1` (single isomer, unassigned) [Example 2.4-1, 1-(1-(6-(4-(2-hydroxypropan-2-yl)-2-azabicyclo[2.1.1]hexan-2-yl)-2-methylpyrimidin-4-yl)-1H-indazol-6-yl)spiro[2.2]pentane-1-carbonitrile], 2.1 nM; to `CC(C)(O)[C@@H]1CCN(c2cc(-n3ncc4ccc(C5(C#N)CC56CC6)cc43)cnn2)C1` (single isomer, unassigned) [Example 10.4-2], 2.7 nM. `CC(C)(O)C12CC(C1)N(c1cc(-n3ncc4c(F)cc(C5(C#N)CC56CC6)cc43)ncn1)C2` (single isomer, unassigned) [Example 4.15-2] showed an IC50 of 2.3 nM. This IC50 and that of the molecule before are within 1.5-fold of each other. `CC(C)(O)C12CC(C1)N(c1cc(-n3ncc4cnc(C5(C#N)CC56CC6)cc43)ncn1)C2` (single isomer, unassigned) [Example 5.2-1, 1-(1-(6-(4-(2-hydroxypropan-2-yl)-2-azabicyclo[2.1.1]hexan-2-yl)pyrimidin-4-yl)-1H-pyrazolo[4,3-c]pyridin-6-yl)spiro[2.2]pentane-1-carbonitrile] had an IC50 of 9.2 nM.

`CC1(O)CC2(CN(c3cc(-n4ncc5ccc([C@@]6(C#N)CC67CC7)cc54)ncn3)C2)C1` [Example 3.9-1] came in with an IC50 of 2.5 nM. Compared with the last molecule, the IC50 is about 3.7-fold lower. Next, `CC1C(C(C)(C)O)CCN1c1cc(-n2ncc3ccc([C@@]4(C#N)CC45CC5)cc32)ncn1` (single isomer, unassigned) [Example 3.5-3]: 1.9 nM. To `N#C[C@]1(c2ccc3cnn(-c4cc(N5CC(O)C6(CC6)C5)ncn4)c3c2)CC12CC2` (single isomer, unassigned) [Example 3.11-3] belongs 6.3 nM.
